Measured values as given in patent publication US7354711B2, “Methods for inhibiting immunostimulatory DNA associated responses” (University of Iowa Research Foundation, priority 1997, dated 2008).

How the values were obtained:
WEHI 231 cells = assay: Inhibition of CpG-ODN 1760 protection against α-sIgM-induced inhibition of [3H] thymidine uptake; type: cell-based, mouse; conditions: for Fold: activity expressed as a fraction of activity of chloroquine / Activity: -log10 of the concentration (M) required for half maximal inhibition of CpG-ODN effect on [3H] thymidine uptake in the presence of α-sIgM: Table 2, 4-aminoquinolines; for Activity: -log10 of the concentration (M) required for half maximal inhibition of CpG-ODN effect on [3H] thymidine uptake in the presence of α-sIgM / Activity,-log10 (concentration (M) for half maximal inhibition of CpG-ODN effect on [3H] thymidine uptake in the presence of α-sIgM): WEHI 231 cells; for vs. Chloroquine, fold / Activity,-log10 (concentration (M) for half maximal inhibition of CpG-ODN effect on [3H] thymidine uptake in the presence of α-sIgM): Table 3, 9-aminoacridines; for Effect on CpG-ODN action (FIG. 1): at concentrations less than 10 μM
Method: The assay of [^3H] Thymidine incorporation was carried out as follows. WEHI 231 cells (200 μL at 2×10^5/milliliter, in duplicate or triplicate) were incubated in a 96-well plate (Costar, Cambridge Mass.). Additions were made as indicated. After incubating for 16 hours, 0.5 μCi [methyl-^3H] thymidine (2 Ci/millimole, DuPont NEN, Boston Mass.) was added to each well, and the cells were incubated for another 4 hours. Cellular DNA was then captured onto glass fiber filters (Whatman 934AH) using a cell harvester (Brandel, Gaithersberg Md.). The filters were dried, placed into plastic scintillation vials with 10 milliliters of scintillation cocktail (EconoSafe, Research Products International, Mount Prospect Ill.), and counted in a liquid scintillation counter (Beckman LS-3133 T). The ^3H recovered on the filter was expressed as a fraction of the ^3H added.
Referring to experiments summarized in FIG. 1, WEHI 231 cells (ca. 2×10^5 per milliliter) were incubated for 16 hours at 37° C. with 10 μgrams/milliliter α-sIgM, 6 μgrams/milliliter ODN 1760, and the indicated concentration of the compound. After 16 hours, 0.5 μCi [^3H] thymidine was added. After 4 more hours incubation, the cellular DNA was harvested onto glass fiber filters. The dry filters were counted in a liquid scintillation counter.
Each experimental point was the mean of at least duplicate measurements.
Referring to the experiments summarized in FIG. 3, 10 μgrams/milliliter α-sIgM and the indicated concentrations of ODN 1760 and quinacrine were added simultaneously to WEHI 231 cells. Thymidine incorporation was estimated at 16 hours as described for Example 1.
Referring to the experiments summarized in FIG. 4, WEHI 231 cells were incubated with α-sIgM and ODN 1760. At times thereafter 0.1 μM quinacrine was added (data shown in the left three bars). Cells were incubated with 10 μgrams/milliliter (α-sIgM and ODN 1760 (6 μgrams/milliliter, phosphorothioate or a phosphodiester ODN with the same sequence as 1760 (PD ODN) (30 μM at time 0 hours and 8 hours; data represented in right six bars in FIG. 4). [^3H] thymidine incorporation was estimated at 16 hours.
The symbol — indicates no change. Me and Et indicate —CH3 and —CH2CH3 respectively. Aromatic substituents are in the para position except as indicated. The activity is —log10 of the concentration (M) required for half maximal inhibition of CpG-ODN effect on [^3H] thymidine uptake in the presence of α-sIgM.

7TD1 cells = assay: Inhibition of 7TD1 cell growth; type: cell-based, mouse; conditions: 10 μg/mL IL-6 alone, five days
Method: One particularly useful cell line for the assay of immunostimulatory DNA action is the mouse-mouse hybridoma plasma cell line 7TD1(ATTC #CRL 1851), which requires exoqenous IL-6 for growth, and has been used to characterize and assay IL-6 (Papadopolous et al., 1995. J. Clin. Lab. Anal. 9:234-7; Krakauer, 1993. J. Immunoassay 14:267-77).
The 7TD1 cells were grown in RPMI 1640 supplemented with 10% fetal bovine serum (heat inactivated at 65° C., 1 hour), 0.3 grams/Liter L-glutamine, 50 milligrams/Liter gentamycin, 0.05 mM 2-mercaptoethanol, and 10 units per milliliter murine IL-6 in a 37° C. humid atmosphere with 5% CO2. Viable 7TD1 cells were counted in a hemocytometer chamber in duplicate after dilution with 0.4% trypan blue.
The 7TD1 cells were incubated for five days and were washed twice with medium to remove IL-6, and resuspended at 2×10^4 per milliliter in medium. Cell counts were performed and the percent inhibition of growth was computed. The term “anti” refers to 40 nanograms/milliliter neutralizing antibody to IL-6.

Molecule	Fold: activity expressed as a fraction of activity of chloroquine (WEHI 231 cells) [fold]	Activity: -log10 of the concentration (M) required for half maximal inhibition of CpG-ODN effect on [3H] thymidine uptake in the presence of α-sIgM (WEHI 231 cells)	other results
CCN(CC)CCCC(CCl)Nc1ccnc2cc(Cl)ccc12 (stereo not drawn) [compound 56]	1.45	7.12	
COc1ccc2nc3cc(Cl)ccc3c(NCCCNCCCCNCCCNc3c4ccc(Cl)cc4nc4ccc(OC)cc34)c2c1 [compound 58, bis-(6-chloro-2-methoxy-9-acridinyl)spermine]			vs. Chloroquine, fold (WEHI 231 cells): 0.26 fold; Activity,-log10 (concentration (M) for half maximal inhibition of CpG-ODN effect on [3H] thymidine uptake in the presence of α-sIgM) (WEHI 231 cells): 6.38
COc1ccc2nc3cc(Cl)ccc3c(N)c2c1 [compound 59, 9-amino-6-chloro-2-methoxyacridine]			vs. Chloroquine, fold (WEHI 231 cells): 1.00 fold; Activity,-log10 (concentration (M) for half maximal inhibition of CpG-ODN effect on [3H] thymidine uptake in the presence of α-sIgM) (WEHI 231 cells): 6.96
CCN(CC)CCC(CNc1ccnc2cc(Cl)ccc12)c1ccc(OC)cc1 (stereo not drawn) [compound 61]	0.79	6.86	
CCN(CC)CCCC(C)Nc1c(C)cnc2cccc(Br)c12 (stereo not drawn) [compound 62]	0.35	6.51	
CCN(CC)CCCC(C)Nc1c(C)cnc2c(OC)c(Cl)ccc12 (stereo not drawn) [compound 63]	0.10	5.95	
CCN(CC)CCCC(C)Nc1ccnc2cc(Oc3ccccc3)ccc12 (stereo not drawn) [compound 64]	0.62	6.75	
CCN(CC)CCC(CNc1c(C)cnc2cc(Cl)ccc12)c1ccc(Cl)c(Cl)c1 (stereo not drawn) [compound 65]	0.58	6.72	
CN(C)C(C)(C)CCCNc1ccnc2cc(Cl)ccc12 [compound 68]	0.81	6.87	
CCOc1cc2c(NC(C)CCCN(CC)CC)c(C)cnc2cc1Cl (stereo not drawn) [compound 71]	0.09	5.90	
CCN(CCO)CCCC(C)Nc1ccnc2cc(Cl)ccc12 (stereo not drawn) [hydroxychloroquine, reference compound]			Inhibition of the CpG-ODN effect (FIG. 1) (WEHI 231 cells; at nanomolar concentrations, 10 μg/mL α-sIgM, 6 μg/mL ODN 1760): completely inhibited
COc1cc(NC(C)CCCN)c2ncccc2c1 (stereo not drawn) [primaquine, reference compound]			Effect on CpG-ODN action (FIG. 1) (WEHI 231 cells): little effect
C=C[C@H]1C[N@@]2CC[C@H]1C[C@H]2[C@H](O)c1ccnc2ccc(OC)cc12 [quinine, reference compound]			Effect on CpG-ODN action (FIG. 1) (WEHI 231 cells): little effect
IL-6: murine IL-6 purchased from PharMingen (protein, UniProt P08505 25-211, looked up) Interleukin-6: FPTSQVRRGDFTEDTTPNRPVYTTSQVGGLITHVLWEIVEMRKELCNGNSDCMNNDDALAENNLKLPEIQRNDGCYQTGYNQEICLLKISSGLLEYHSYLEYMKNNLKDNKKDKARVLQRDTETLIHIFNQEVKDLHKIVLPTPISNALLTDKLESQKEWLRTKTIQFILKSLEEFLKVTLRSTRQT			7TD1 cells/μL (7TD1 cells): 887 cells/μL
